Data published in US4173641A, “Di-O-n-alkyl glycerol derivatives as immune stimulants” (priority 1978, dated 1979).
Where “and” joins values, the source holds several entries; their conditions need not be identical. Equal entries are not always repeated. Structures can show the parent of a compound that is named as a salt. Where two headings read alike, the source gives them in different places.

How the values were obtained:
[1] = test system: L 1210 cells / peritoneal macrophages; assay: Assessment of peritoneal macrophage activation (inhibition of DNA synthesis in L 1210 cells); format: in vivo, mice; conditions: Mus musculus, L1210, ip, intraperitoneal, macrophages harvested 72 hours later
Protocol: (§1) Mice were injected intraperitoneally with saline or the test compound. Macrophages were harvested 72 hours later by intraperitoneal injection of 3 ml 8% fetal calf serum-- 92% RPMI 1640 medium (Grand Island Biological Co., N.Y.) (164092 FCS8) plus 5 units/ml of heparin, the temperature of all media being kept at 37° C., lavaged 1 to 2 minutes, opened and all peritoneal fluid drawn off with a sterile, siliconized pipet into a 50 ml plastic tube kept in ice. The macrophages were counted using a hemocytometer and adjusted to a concentration of 1.5×10^6 /ml with 164092 FCS8. The cells were then placed in multiwell plates, 1.5×10^6 cells per well, and incubated for 1 to 2 hours at 37° C. in a 5% carbon dioxide atmosphere. The supernate was discarded and the cells were washed once with media, the macrophages adhering to the bottom of the wells. L 1210 cells (harvested from ascites of DBA mice approximately 5 days after innoculation) in 164092 FCS8 were then added, 1 ml of 1×10^5 cells/ml to each well and incubated at 37° C. for 24 to 30 hours in a 5% carbon dioxide atmosphere. The cells were then pulsed with ^3 H-Tdr (1.0μCi/ml; Amersham/Searles) for 6 hours at 37° C., the supernate drawn off using a cell harvester: Reeve-Angel filter, and washed five times with saline. The filter discs were allowed to dry and placed in scintillation vials with LSC scintillation fluid (5.0 g PPO and 0.2 g POPOP/liter toluene; Yorktown Research). Counting was done for 2 minutes using a Beekman LS-250 β-counter.

[2] = test system: S-180J cells (sarcoma 180J); assay: Sarcoma 180J model for assessment of tumor rejection; format: in vivo, female CD-1 mice; conditions: for number of 40 day survivors: six mice per group
Protocol: Six female CD-1 mice (20-25 g) per group received 10^6 S-180J cells which were 5 to 8 days old by intraperitoneal administration. On the day following tumor innoculation the mice received 0.1 ml of the test compound formulated in the fat emulsion vehicle Intralipid (Cutter Laboratories) at the desired dose and were then observed until death or 40 days, whichever occurs first. Results are expressed as increased percent life span (%ILS), defined as follows: [formula] Results obtained by the above test procedure were as follows:
Results of the above test obtained with (1-hydroxy-2-alkylamino ethyl)-benzyloxy analogs of this invention formulated in Tween 80-glycerol-water are shown in Table 2.
(Numbers in parentheses in Tables 1 and 2 above are the number

[3] = test system: L1210 cells / peripheral blood monocytes; assay: Assessment of peripheral blood monocyte activation (inhibition of DNA synthesis in L1210 cells); format: in vivo, rats; conditions: Rattus norvegicus, intravenous, monocytes harvested 72 hours later, Effector:Target ratio 15:1
Protocol: as §1, with “The cells were then pulsed with ^3 H-Tdr (1.0μCi/ml; Amersham/Searles) for 6 hours at 37° C., the supernate drawn off using a cell harvester: Reeve-Angel filter, and washed five times with saline. The filter discs were allowed to dry and placed in scintillation vials with LSC scintillation fluid (5.0 g PPO and 0.2 g POPOP/liter toluene; Yorktown Research). Counting was done for 2 minutes using a Beekman LS-250 β-counter.” left out
Rats were injected intravenously with the test compound, or with saline for control animals. […] Following the procedure described in Example 13 the cells were pulsed with ^3 H-Tdr and counted with a scintillation counter.

[4] = test system: Influenza virus; assay: Vaccine adjuvanticity - hemagglutination inhibition test; format: in vivo, Hartley female guinea pigs (vaccinated); influenza virus; conditions: for Hemagglutination Titer: compound (5 mg) with Fluogen, individual animal
[5] = in vivo; design: species or system mice and rats; conditions: read-out: therapeutic index
Source text: The compounds may be used in pharmaceutical preparations containing the compound or a pharmaceutically acceptable salt thereof in combination with a pharmaceutically acceptable carrier or diluent. A particularly preferred type of pharmaceutical carrier for this purpose is a sterile fat or lipid emulsion vehicle. […] Such advantages have been reported for other compounds used with such fat emulsion vehicles, see for example Fortner, et al., American Journal of Hospital Pharmacy, 32, 502 (1975) and Jeppsson, et al., First International Conference on Pharmaceutical technology, Faculty of Pharmacy, Paris-Sud, June 1977. An example of a particularly suitable vehicle is Intralipid (Cutter Laboratories, Berkeley, California), a 10% fat emulsion, based on soybean oil. However, other similar vehicles would be suitable and may be readily prepared by those skilled in the art.

[6] = 0.25 mg/kg, fat emulsion vehicle Intralipid
[7] = 1 mg/kg, fat emulsion vehicle Intralipid
[8] = 4 mg/kg, fat emulsion vehicle Intralipid
[9] = 16 mg/kg, fat emulsion vehicle Intralipid
[10] = 5 mg/kg, Tween 80-glycerol-water
[11] = 15 mg/kg, Tween 80-glycerol-water
[12] = 50 mg/kg, Tween 80-glycerol-water

| Structure (SMILES) | %ILS (increased percent life span) [2, 6] [%] | %ILS (increased percent life span) [2, 7] [%] | %ILS (increased percent life span) [2, 8] [%] | %ILS (increased percent life span) [2, 9] [%] | %ILS (increased percent life span) [2, 10] [%] | number of 40 day survivors [2, 10] | %ILS (increased percent life span) [2, 11] [%] | %ILS (increased percent life span) [2, 12] [%] | number of 40 day survivors [2, 12] | other results |
| --- | --- | --- | --- | --- | --- | --- | --- | --- | --- | --- |
| CCCCCCCCCCOCC(CN1CCC(CN)(c2ccccc2)CC1)OCCCCCCCCCC (stereo not drawn) [n-C10 H21, 4-Aminomethyl-1-[2,3-(di-n-decyloxy)-n-propyl]-4-phenylpiperidine] | 127 | 139 | 110 | 108 |  |  |  |  |  | inhibition at 0.313 mg/kg ([1]; 0.313 mg/kg): 56%; inhibition at 0.625 mg/kg ([1]; 0.625 mg/kg): 94%; inhibition at 1.25 mg/kg ([1]; 1.25 mg/kg): 76%; number of 40 day survivors ([2]; 1 mg/kg, Intralipid): 1; inhibition at 1.25 mg/kg [3]: 80%; Hemagglutination Titer ([4]; day 15 after primary sensitization): 10 and 0; Hemagglutination Titer ([4]; day 30 after primary sensitization (rechallenge day)): 10 and 40 and 20 and 0; Hemagglutination Titer ([4]; day 44 after primary sensitization, rechallenged at 30 days): 80 and 640 and 10 and 40; Hemagglutination Titer ([4]; day 65 after primary sensitization, rechallenged at 30 days): 1280 and 2560 and 160 and 20 and 10; hemagglutination titer observed after rechallenge (adjuvant activity) ([4]; compound with Fluogen, in words): higher hemagglutination titer observed after rechallenge |
| CCCCCCCCCCCCCCCCOCC(COCCCCCCCCCCCCCCCC)OCc1cccc(C(O)CNC(C)(C)C)c1 (stereo not drawn) [C(CH3)3 1,3] |  |  |  |  | 159 | 1 | 171 | 157 | 2 | number of 40 day survivors [2, 11]: 3 |
| CCCCCCCCCCCCCCCCOCC(CN1CCC(CN)(c2ccccc2)CC1)OCCCCCCCCCCCCCCCC (stereo not drawn) [n-C16 H33, 4-Aminomethyl-1-[2,3-(di-n-hexadecyloxy)-n-propyl]-4-phenylpiperidine Dihydrochloride] | 110 | 105 | 104 | 127 |  |  |  |  |  |  |
| CCCCCCCCCCCCCCCCOCC(COCc1cccc(C(O)CNC(C)C)c1)OCCCCCCCCCCCCCCCC (stereo not drawn) [CH(CH3)2 2,3] |  |  |  |  | 174 | 1 | 135 | 147 | 1 |  |
| CCCCCCCCCCCCCCOCC(CN1CCC(CN)(c2ccccc2)CC1)OCCCCCCCCCCCCCC (stereo not drawn) [n-C14 H29] | 129 | 116 | 133 | 109 |  |  |  |  |  | inhibition at 25 mg/kg ([1]; 25 mg/kg): 90%; number of 40 day survivors ([2]; 0.25 mg/kg, Intralipid): 1 |
| CCCCCCCCCCCCCCCCOCC(COCc1cccc(C(O)CNC(C)(C)C)c1)OCCCCCCCCCCCCCCCC.Cl (stereo not drawn) [C(CH3)3 2,3, 1,2-Di-O-(n-hexadecyl)-3-O-[3-(1-hydroxy-2-t-butylaminoethyl)benzyl]-glycerol hydrochloride] |  |  |  |  | 166 | 2 | 181 | 182 | 4 | number of 40 day survivors [2, 11]: 4 |
| CCCCCCCCCCCCCCCCCCOCC(CN1CCC(CN)(c2ccccc2)CC1)OCCCCCCCCCCCCCCCCCC (stereo not drawn) [n-C18 H37] | 119 | 158 | 98 | 109 |  |  |  |  |  | number of 40 day survivors ([2]; 1 mg/kg, Intralipid): 2 |
| CCCCCCCCOCC(CN1CCC(CN)(c2ccccc2)CC1)OCCCCCCCC (stereo not drawn) [n-C8 H17] | 113 | 109 | 154 | 192 |  |  |  |  |  | selectivity ratio ([5]; Tween 80-glycerol-water formulations): ~3; selectivity ratio ([5]; sterile fat or lipid emulsion vehicle, parenteral and intravenous): 15 to 25; number of 40 day survivors ([2]; 4 mg/kg, Intralipid): 1; number of 40 day survivors ([2]; 16 mg/kg, Intralipid): 4 |
